As a reminder, the EC50 is the concentration needed to bring the measured effect to its halfway point. A higher EC50 goes with lower potency in that assay.

Results on three compounds are retold here after article PMC4819177, “The rational search for selective anticancer derivatives of the peptide Trichogin GA IV: a multi-technique biophysical approach” (Scientific Reports, 2016).

Entries after “also recorded” stand apart in the source; their conditions may differ. Square brackets hold non-standard residues; d marks the D form. Peptide text beside a SMILES is read from it. * marks the point of attachment. TOAC = CC1(C)CC(N)(C(=O)O)CC(C)(C)N1[O]; Leu(ol) = CC(C)C[C@H](N)CO; Octanoyl = CCCCCCCC(=O)*; Api = NC1(C(=O)O)CCNCC1; Aib = CC(C)(N)C(=O)O

Data set [1] relates to human dermal fibroblasts (HDF). Format: cell-based. Particulars: MTT, 24 h exposure; average error about ±2 μM. On the procedure:
(§1) We studied the effect of TG and its analogues on normal (HDF) and transformed (T67 and HeLa) cells. The cellular viability was assessed after 24 hours of exposure to the peptides by the MTT assay (Table 1).
(§2) Culture media, foetal bovine serum (FBS) and antibiotics were purchased from Carlo Erba Dasit Group. The T67 human glioma cell line was derived by Lauro et al.[49] from a World Health Organization (WHO) Grade III gemistocytic astrocytoma. Human dermal fibroblasts (HDF) were obtained by ATCC. HDF were cultured in Fibroblast Basal Medium (ATCC) supplemented with 10% FBS. T67 and HeLa cells were cultured in Dulbecco’s modified Eagle’s medium (MMedical) supplemented with 10% FBS, 100 UI/ml penicillin, 100 μg/ml streptomycin, and 40 μg/ml gentamycin, and kept in a 5% CO2 atmosphere at 37 °C, with saturating humidity. Cell viability and number were measured by trypan blue exclusion method.
(§3) Cytotoxicity of peptides was estimated using a MTT assay. All the chemicals used for this assay have been purchased by sigma Aldrich and used without further purification. T67, HeLa and HDF cells were seeded in 24-well plates at 1 × 10^5 cells/well. Experiments were performed after 24 h of incubation at 37 °C in 5% CO2. After this time cells were washed and treated for 24 h with different concentrations of peptides; the cells are then incubated for 60 mins with 300 μM of MTT in culture medium. The absorbance of each well was measured at 450 nm with a spectrofluorometer (Wallac Victor multilabel counter; Perkin-Elmer Inc., Boston, MA, USA). Data are reported as the mean ± standard deviation of at least three independent experiments.

The test system of data set [2] is HeLa cells. Format: cell-based, human. Particulars: MTT, 24 h exposure; average error about ±2 μM. The method, then:
as §1, §2, §3

The next data set relates to T67, HeLa and HDF cells. The data set can be described thus: MTT cytotoxicity assay, summary over the three cell lines. Format: cell-based, human. Particulars: 24 h. On the procedure:
as §1, §3
For orientation: Tetrazolium dyes change colour on reduction, which living cells bring about.

Data set [3] can be described thus: EPR of TOAC-labelled peptides in POPC SUV. Format: binding. The conditions noted are these: P:L 1:100, 78 μM peptide. An excerpt:
(§4) EPR spectroscopy has been performed on TOAC-labelled analogues to determine the amount of peptide bound to the membrane and to evaluate the peptide dynamics. […] We studied all analogues in buffer solution and in POPC SUV, the same systems used for CD spectroscopy; four selected analogues (see cytotoxicity assay paragraph) were also studied interacting with a suspension of intact cells of the three cell lines. […] Additionally, from the simulations, we determined the value of the Azz hyperfine component that gives an indication of the polarity of the environment. All EPR spectra and simulations are reported in the Supplementary Information (Figs S1–S4), while in Fig. 4, we report an overview of the experiments. In the top part of the figure, we show the spectra of [TOAC^1] […]
The EPR spectra of all TOAC-labelled peptides recorded in POPC SUV are very similar to each other, and are shown in the Supplementary Information, Fig. S1. […]
(§5) Methanol, 99.9%, spectrophotometric grade, [4-(2-hydroxyethyl)-1-piperazinyl]ethanesulfonic acid (HEPES), and PBS buffer (NaCl 137 mM, KCl 2.7 mM, Na2HPO4 10 mM, KH2PO4 1.8 mM, pH 7.4) were purchased from Sigma-Aldrich. […] The spectra were recorded after 15–20 minutes of incubation of the peptide to the cell suspension. […] The microwave frequency was measured by a frequency counter, HP5342A. […]

Data set [4] has as its system HeLa cells. Briefly: EPR of TOAC-labelled peptides with intact HeLa cells. Particulars: 125 μM, 25 nmol per million cells, 15–20 min incubation. The class given is binding, human.
Excerpt: as §4, with “[TOAC^1] TG in buffer solution (blue), in SUV (red), and interacting with T67 cells (magenta). In the bottom part, we show the spectra of the other three peptides, representative of the different degrees of biological activity, interacting with intact T67 cells.” for “[TOAC^1]”
(§6) Methanol, 99.9%, spectrophotometric grade, [4-(2-hydroxyethyl)-1-piperazinyl]ethanesulfonic acid (HEPES), and PBS buffer (NaCl 137 mM, KCl 2.7 mM, Na2HPO4 10 mM, KH2PO4 1.8 mM, pH 7.4) were purchased from Sigma-Aldrich. […] The spectra were recorded after 15–20 minutes of incubation of the peptide to the cell suspension. […]

The next data set concerns HDF cells. Briefly: EPR of TOAC-labelled peptides with intact HDF cells. Format: binding, human. The conditions noted are these: 125 μM, 25 nmol per million cells, 15–20 min incubation.
Excerpt: as §4, with “[TOAC^1] TG in buffer solution (blue), in SUV (red), and interacting with T67 cells (magenta). In the bottom part, we show the spectra of the other three peptides, representative of the different degrees of biological activity, interacting with intact T67 cells.” for “[TOAC^1]”
as §6

The subject of data set [5] is T67 human glioma cell line. Format: cell-based. Particulars: MTT, 24 h exposure; average error about ±2 μM. On the procedure:
as §1, §2, §3

The next data set deals with T67 cells. Briefly: EPR of TOAC-labelled peptides with intact T67 cells. Format: binding, human. Particulars: 125 μM, 25 nmol per million cells, 15–20 min incubation.
Excerpt: as §4, with “[TOAC^1] TG in buffer solution (blue), in SUV (red), and interacting with T67 cells (magenta). In the bottom part, we show the spectra of the other three peptides, representative of the different degrees of biological activity, interacting with intact T67 cells.” for “[TOAC^1]”
as §6

The subject of data set [6] is suspensions of intact cells (T67, HeLa, HDF). The data set can be described thus: EPR binding to suspensions of intact cells, summary. More on the design: species or system human. The conditions noted are these: over the three cell lines.
Excerpt: The EPR spectra of all peptides interacting with suspensions of intact cells (Fig. S3) show two spectral components: the three sharp lines characteristic of peptides in aqueous solution and the broad lineshape of peptides bound to the membrane. Therefore all peptides are not fully bound to the cell membranes. The presence of two well-defined spectral components implies that the exchange of the peptides between the two phases (membrane and aqueous solution) is slow on the EPR timescale, with a frequency less than ≈1 MHz. The amount of peptide bound to the membrane is obtained from the relative contribution of each spectral component to the total area of the simulated spectrum. A detailed example of the procedure is reported in the Supplementary Information, Fig. S4. The spectra show small variations in binding for the same peptide in different cell lines, and large variations for different peptides in the same cell line. Among the analogues, [TOAC^1, Lys^6] TG and [TOAC^1, Leu^4] […]
as §5

The next data set has as its system S. aureus. The conditions noted are these: relative to TG; cited from earlier work.

As to `CCCCCCCC(=O)NC1(C(=O)NCC(=O)N[C@@H](CC(C)C)C(=O)NC2(C(=O)NCC(=O)NCC(=O)N[C@@H](CC(C)C)C(=O)NC(C)(C)C(=O)NCC(=O)N[C@H](C(=O)N[C@H](CO)CC(C)C)[C@@H](C)CC)CCNCC2)CC(C)(C)N([O])C(C)(C)C1` [[TOAC^1, Api^4] TG, Oct-XGLZGGLUGI-Lol] (Octanoyl-[TOAC]GL[Api]GGL[Aib]GI[Leu(ol)]), the EC50 (in data set [1]; with HeLa cells [2]) was > 20 µM in each case. Moreover, the “cytotoxicity / selectivity in words” value in the data set on T67, HeLa and HDF cells is “selective toxicity; also recorded: selective cytotoxicity towards a cancer cell line”. Moreover, the “% membrane-bound peptide POPC SUV” value in [3] is >99%. The “% membrane-bound peptide HeLa” value in the data set with HeLa cells [4] was 21%. The “% membrane-bound peptide HDF” value with HDF cells stood at 28%.
With `CCCCCCCC(=O)NC1(C(=O)NCC(=O)N[C@@H](CC(C)C)C(=O)NC(C)(C)C(=O)NCC(=O)NCC(=O)N[C@@H](CC(C)C)C(=O)NC(C)(C)C(=O)NCC(=O)N[C@H](C(=O)N[C@H](CO)CC(C)C)[C@@H](C)CC)CC(C)(C)N([O])C(C)(C)C1` [[TOAC^1] TG, Oct-XGLUGGLUGI-Lol] (Octanoyl-[TOAC]GL[Aib]GGL[Aib]GI[Leu(ol)]), the EC50 in data set [5] came out at 1 µM; in data set [1], 5 µM; with HeLa cells [2] it was 3 µM. For the same compound, in [3], the “% membrane-bound peptide POPC SUV” value was 100%. In addition, in the data set with T67 cells, the “% membrane-bound peptide T67” value turned out to be 85%. The “% membrane-bound peptide HeLa” value in the data set with HeLa cells [4] stood at 78%. Besides, in the data set with HDF cells, the “% membrane-bound peptide HDF” value came out at 84%. The “percentage of peptide bound to cells” value in data set [6] is reported as ~ 80%.
Take `CCCCCCCC(=O)NC(C)(C)C(=O)NCC(=O)N[C@@H](CC(C)C)C(=O)NC(C)(C)C(=O)N[C@@H](CCCCN)C(=O)N[C@@H](CCCCN)C(=O)N[C@@H](CC(C)C)C(=O)NC(C)(C)C(=O)NCC(=O)N[C@H](C(=O)N[C@H](CO)CC(C)C)[C@@H](C)CC` [[Lys^5,6] TG, Oct-UGLUKKLUGI-Lol]: the EC50 in [5] came out at 7 µM; in data set [1], 15 µM; with HeLa cells [2], 10 µM. In addition, the antibacterial activity entry in the data set on S. aureus is given as “remarkably increased activity”.
